Reference: US20120115845A1, “THERAPEUTIC AGENTS” (priority 2007, published 2012)

What was measured:
human GHS receptor [1] = target: T1, human GHS receptor (Homo sapiens, UniProt Q92847); test: h bind IC50 (binding assay, Table 1); details: human receptor; Table 1
human GHS receptor [2] = target: T1, human GHS receptor; test: Ghrelin IP1 agonist assay (IP1 HTRF); type: cell-based; parameters: expressed in transfected cells; host or cells: HEK293s; details: for Emax: 2 h, agonist effect as % maximal effect of GHRP-6 (5 μM), read-out: h IP1 ag %; for EC50: HEK293s cells stably expressing human GHS receptor, 2 hours at 37° C., read-out: h IP1 ag EC50
In short: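 Cells: HEK293s stably expressing human GHS receptor, in stimulation buffer containing 0.02% fatty acid free BSA.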

T1 sequence (Q92847 whole entry): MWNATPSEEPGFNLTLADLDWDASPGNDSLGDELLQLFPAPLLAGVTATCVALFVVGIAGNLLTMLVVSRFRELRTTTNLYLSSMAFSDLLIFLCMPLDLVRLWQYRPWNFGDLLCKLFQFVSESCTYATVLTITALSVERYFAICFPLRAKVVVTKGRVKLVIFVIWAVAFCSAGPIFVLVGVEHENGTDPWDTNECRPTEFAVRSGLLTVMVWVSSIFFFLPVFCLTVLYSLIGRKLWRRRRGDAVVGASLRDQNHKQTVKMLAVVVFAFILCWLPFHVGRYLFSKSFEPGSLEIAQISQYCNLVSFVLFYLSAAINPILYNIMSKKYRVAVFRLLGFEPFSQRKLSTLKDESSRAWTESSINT

Compound	IC50 (human GHS receptor [1]) [nM]	Emax (human GHS receptor [2]) [%]	EC50 (human GHS receptor [2]) [nM]
CN(C)CCOc1ccc(Cl)c(C(=O)NC(=O)Nc2nc3ccc(S(C)(=O)=O)cc3s2)c1 [Example 63, 2-Chloro-5-(2-(dimethylamino)ethoxy)-N-(6-(methylsulfonyl)benzothiazol-2-ylcarbamoyl)benzamide]	2770	31.8	61.4
O=C(NC(=O)c1ccccc1Cl)Nc1nc2ccc(S(=O)(=O)CCNCCO)cc2s1 [Example 14, 2-Chloro-N-[[6-[2-(2-hydroxyethylamino)ethylsulfonyl]benzothiazol-2-yl]carbamoyl]benzamide]	321	47.6	166
CN(C)Cc1ccc(Cl)c(C(=O)NC(=O)Nc2nc3ccc(S(C)(=O)=O)cc3s2)c1 [Example 266, 2-chloro-5-((dimethylamino)methyl)-N-(6-(methylsulfonyl)benzo[d]thiazol-2-ylcarbamoyl) benzamide]	4940	6	≥ 20000
CC(C)c1ccccc1C(=O)NC(=O)Nc1nc2ccc(S(C)(=O)=O)cc2s1 [Example 136, N-[(6-Methylsulfonylbenzothiazol-2-yl)carbamoyl]-2-propan-2-yl-benzamide]	197	21.5	217
CC(C)N1CCC[C@H](COc2ccc(Cl)c(C(=O)NC(=O)Nc3nc4ccc(S(C)(=O)=O)cc4s3)c2)C1 [Example 228, (S)-2-chloro-5-((1-isopropylpiperidin-3-yl)methoxy)-N-(6-(methylsulfonyl)benzo[d]thiazol-2-ylcarbamoyl)benzamide]	1240	9.89	1370
CS(=O)(=O)c1ccc2nc(NC(=O)NC(=O)c3cc(OC4CNC4)ccc3Cl)sc2c1 [Example 253, 5-(azetidin-3-yloxy)-2-chloro-N-(6-(methylsulfonyl)benzo[d]thiazol-2-ylcarbamoyl) benzamide]	7600	5.84	4970
COc1cc(Cl)c(C(=O)NC(=O)Nc2nc3ccc(S(=O)(=O)C4CCN(C(=O)OC(C)(C)C)CC4)cc3s2)cc1-n1cccn1 [Example 262, tert-butyl4-(2-(3-(2-chloro-4-methoxy-5-(1H-pyrazol-1-yl)benzoyl)ureido)benzo[d]thiazol-6-ylsulfonyl) piperidine-1-carboxylate]	34.3	0	≥ 20000
CNCCS(=O)(=O)c1ccc2nc(NC(=O)NC(=O)c3ccccc3Cl)sc2c1 [Example 4, 2-Chloro-N-[[6-(2-methylaminoethylsulfonyl)benzothiazol-2-yl]carbamoyl]benzamide]	77.3	58.5	9.46
CC(C)(C)OC(=O)N1CCC(Oc2ccc(Cl)c(C(=O)NC(=O)Nc3nc4ccc(S(C)(=O)=O)cc4s3)c2)C1 (stereo not drawn) [Example 248, tert-butyl 3-(4-chloro-3-(6-(methylsulfonyl)benzo[d]thiazol-2-ylcarbamoyl-carbamoyl)phenoxy) pyrrolidine-1-carboxylate]	59	3.07	347
CS(=O)(=O)c1ccc2nc(NC(=O)NC(=O)c3ccccc3COc3ccccc3)sc2c1 [Example 131, N-[(6-Methylsulfonylbenzothiazol-2-yl)carbamoyl]-2-(phenoxymethyl)benzamide]	229	17.5	191
CS(=O)(=O)c1ccc2nc(NC(=O)NC(=O)c3ccccc3OS(=O)(=O)C(F)(F)F)sc2c1 [Example 137, N-[(6-Methylsulfonylbenzothiazol-2-yl)carbamoyl]-2-(trifluoromethylsulfonyloxy)benzamide]	1750	24.1	2320
CN(C)c1cccc(-c2ccc(Cl)c(C(=O)NC(=O)Nc3nc4ccc(S(C)(=O)=O)cc4s3)c2)n1 [Example 251, 2-chloro-5-(6-(dirnethylamino)pyridin-2-yl)-N-(6-(methylsulfonyl)benzo[d]thiazol-2-ylcarbamoyl) benzamide]	34.4	0	≥ 20000
O=C(NC(=O)c1ccccc1Cl)Nc1nc2ccc(S(=O)(=O)CCNCC3CC3)cc2s1 [Example 34, 2-Chloro-N-[[6-[2-(cyclopropylmethylamino)ethylsulfonyl]benzothiazol-2-yl]carbamoyl]benzamide]	99.3	46.7	11.1
CC(C)OCCNCCS(=O)(=O)c1ccc2nc(NC(=O)NC(=O)c3ccccc3Cl)sc2c1 [Example 38, 2-Chloro-N-[[6-[2-(2-propan-2-yloxyethylamino)ethylsulfonyl]benzothiazol-2-yl]carbamoyl]benzamide]	179	40	14.7
CS(=O)(=O)c1ccc2nc(NC(=O)NC(=O)c3cccc(F)c3Cl)sc2c1 [Example 110, 2-Chloro-3-fluoro-N-[(6-methylsulfonylbenzothiazol-2-yl)carbamoyl]benzamide]	392	15.8	91.7
O=C(NC(=O)c1ccccc1Cl)Nc1nc2ccc(S(=O)(=O)CCN3CCC(F)(F)C3)cc2s1 [Example 21, 2-Chloro-N-[[6-[2-(3,3-difluoropyrrolidin-1-yl)ethylsulfonyl]benzothiazol-2-yl]carbamoyl]benzamide]	1680	16.9	221

The next compounds have a lower IC50 (human GHS receptor [1]) than those just listed; values first:

IC50 (human GHS receptor [1]) [nM]	Emax (human GHS receptor [2]) [%]	EC50 (human GHS receptor [2]) [nM]	Compound
0.47	9.98	43.4	CN1CCCN(CCCS(=O)(=O)c2ccc3nc(NC(=O)NC(=O)c4cc(I)ccc4Cl)sc3c2)CC1 [Example 238, 2-chloro-5-iodo-N-(6-(3-(4-methyl-1,4-diazepan-1-yl)propylsulfonyl)benzo[d]thiazol-2-ylcarbamoyl) benzamide]
17.8	64.5	29.3	O=C(NC(=O)c1ccccc1Cl)Nc1nc2ccc(S(=O)(=O)CC3CCNCC3)cc2s1 [Example 219, 2-Chloro-N-[[6-(4-piperidylmethylsulfonyl)benzothiazol-2-yl]carbamoyl]benzamide]
4.2	8.13	4.28	CCN(CC)CCCS(=O)(=O)c1ccc2nc(NC(=O)NC(=O)c3cc(N4CCOCC4)ccc3Cl)sc2c1 [Example 97, 2-Chloro-N-(6-(3-(diethylamino)propylsulfonyl)benzothiazol-2-ylcarbamoyl)-5-morpholinobenzamide]
14.2	1	16	CS(=O)(=O)c1ccc2nc(NC(=O)NC(=O)c3cc(OC4CCCC4)ccc3Cl)sc2c1 [Example 51, 2-Chloro-5-cyclopentyloxy-N-(6-(methylsulfonyl)benzothiazol-2-ylcarbamoyl)benzamide]
21.5	41.7	11000	CS(=O)(=O)c1ccc2nc(NC(=O)NC(=O)c3ccccc3Sc3ccccc3)sc2c1 [Example 133, N-[(6-Methylsulfonylbenzothiazol-2-yl)carbamoyl]-2-phenylsulfanyl-benzamide]
12.4	42.2	15.4	CC1CN(CCCS(=O)(=O)c2ccc3nc(NC(=O)NC(=O)c4ccccc4Cl)sc3c2)CCN1 (stereo not drawn) [Example 209, 2-Chloro-N-[[6-[3-(3-methylpiperazin-1-yl)propylsulfonyl]benzothiazol-2-yl]carbamoyl]benzamide]
20.6	37	4.13	CC(C)N1CCC[C@@H]1CS(=O)(=O)c1ccc2nc(NC(=O)NC(=O)c3ccccc3Cl)sc2c1 [Example 168, 2-Chloro-N-[[6-[[(2R)-1-propan-2-ylpyrrolidin-2-yl]methylsulfonyl]benzothiazol-2-yl]carbamoyl]benzamide]
0.8	0.81	4220	O=C(NC(=O)c1cc(-n2cccc2)ccc1Cl)Nc1nc2ccc(S(=O)(=O)[C@@H]3CCNC3)cc2s1 [Example 78, 2-Chloro-N-[[6-[(3R)-pyrrolidin-3-yl]sulfonylbenzothiazol-2-yl]carbamoyl]-5-pyrrol-1-yl-benzamide]
10.1	10.8	≥ 25000	Cc1ccn(-c2ccc(Cl)c(C(=O)NC(=O)Nc3nc4ccc(S(C)(=O)=O)cc4s3)c2)n1 [Example 56, 2-Chloro-5-(3-methyl-1H-pyrazol-1-yl)-N-(6-(methylsulfonyl)benzothiazol-2-ylcarbamoyl)benzamide]
2.08	0	≥ 20000	CC(C)NCC(C)(C)S(=O)(=O)c1ccc2nc(NC(=O)NC(=O)c3cc(N4CCOCC4)ccc3Cl)sc2c1 [Example 246, 2-chloro-N-(6-(1-(isopropylamino)-2-methylpropan-2-ylsulfonyl)benzo[d]thiazol-2-ylcarbamoyl)-5-morpholino-benzamide]
2.2	51.5	2.26	CN1CCN(CCCCS(=O)(=O)c2ccc3nc(NC(=O)NC(=O)c4ccccc4Cl)sc3c2)CC1 [Example 210, 2-Chloro-N-[[6-[4-(4-methylpiperazin-1-yl)butylsulfonyl]benzothiazol-2-yl]carbamoyl]benzamide]
5.03	0.653	≥ 20000	CN1CCC(S(=O)(=O)c2ccc3nc(NC(=O)NC(=O)c4cc(-n5cccn5)c(Cl)cc4Cl)sc3c2)CC1 [Example 259, 2,4-dichloro-N-(6-(1-methylpiperidin-4-ylsulfonyl)benzo [d]thiazol-2-ylcarbamoyl)-5-(1H-pyrazol-1-yl)benzamide]
14.9	29.4	6.22	COCCNCCCS(=O)(=O)c1ccc2nc(NC(=O)NC(=O)c3ccccc3Cl)sc2c1 [Example 203, 2-Chloro-N-[[6-[3-(2-methoxyethylamino)propylsulfonyl]benzothiazol-2-yl]carbamoyl]benzamide]
